Results from patent publication US7541341B2, “Glucopyranosyloxybenzylbenzene derivatives and medicinal use thereof” (Kissei Pharmaceutical Co., Ltd., priority 2001, dated 2009).

Experiments:
human SGLT2 = target: T1, human SGLT2 (Homo sapiens, UniProt P31639, I433V); assay: Assay for inhibitory effect on human SGLT2 activity (uptake of methyl-α-D-glucopyranoside in COS-7 cells transiently expressing human SGLT2); format: cell-based; conditions: methyl-α-D-(U-14C)glucopyranoside uptake, 37° C., 2 hours
T1 construct: expressed in transfected cells; host or cells: COS-7 cells (RIKEN CELL BANK RCB0539), transient, electroporation of KL29
T1 sequence (P31639 1-672 I433V): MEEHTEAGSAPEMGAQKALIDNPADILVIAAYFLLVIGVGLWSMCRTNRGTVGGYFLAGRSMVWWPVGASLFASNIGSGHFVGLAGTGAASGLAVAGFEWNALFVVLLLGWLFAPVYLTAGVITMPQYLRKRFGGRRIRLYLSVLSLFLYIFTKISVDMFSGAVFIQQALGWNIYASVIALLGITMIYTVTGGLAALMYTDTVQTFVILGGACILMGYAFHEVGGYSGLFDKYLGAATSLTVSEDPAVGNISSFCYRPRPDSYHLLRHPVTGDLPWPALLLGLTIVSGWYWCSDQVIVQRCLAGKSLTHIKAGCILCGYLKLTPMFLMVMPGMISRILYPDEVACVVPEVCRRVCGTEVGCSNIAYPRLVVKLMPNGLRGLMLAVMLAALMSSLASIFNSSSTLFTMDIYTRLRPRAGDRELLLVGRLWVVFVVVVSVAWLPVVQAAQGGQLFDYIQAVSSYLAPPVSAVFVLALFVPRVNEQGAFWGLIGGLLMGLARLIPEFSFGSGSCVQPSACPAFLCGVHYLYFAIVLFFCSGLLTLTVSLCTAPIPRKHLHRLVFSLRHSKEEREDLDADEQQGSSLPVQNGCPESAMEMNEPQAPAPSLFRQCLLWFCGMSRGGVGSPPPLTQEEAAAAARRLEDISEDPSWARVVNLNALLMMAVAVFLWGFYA
Protocol: Assay for Inhibitory Effect on Human SGLT2 Activity
1) Construction of the Plasmid Vector Expressing Human SGLT2
Preparation of the cDNA library for PCR amplification was performed by reverse transcription of a total RNA deprived from human kidney (Ori gene) with oligo dT as the primer, using […] Preamplification System (Gibco-BRL: LIFE TECHNOLOGIES). The DNA fragment coding for human SGLT2 was amplified by the PCR reaction, in which the human kidney cDNA library described above was used as the template and the following oligo nucleotides 0702F and 0712R, presented as SEQ ID NO:1 and SEQ ID NO:2 respectively, were used as the primers. The amplified DNA fragment was ligated into pCR-Blunt (Invitrogen), a vector for cloning, according to standard method of the kit. The Escherichia coli HB101 was transformed according to usual method and then selection of the transformants was performed on the LB agar medium containing 50 μg/mL of kanamycin. […] After plasmid DNA was extracted and purified from this transformant, the base sequence of the DNA fragment inserted at the multi-cloning sites of the vector pcDNA3.1 (−) Myc/His-B was analyzed. […]

SD rats = assay: Assay for the facilitatory effect on urinary glucose excretion; format: in vivo; conditions: fasted male SD rats, sucrose 2.5 g/kg load, 24 hours urine
Protocol: Assay for the Facilitatory Effect on Urinary Glucose Excretion
As experimental animals, overnight fasted SD rats (Japan SLC. Inc., male, 7-8 weeks of age, 205-272 g) were used. A Test compound was suspended in 0.5% sodium carboxymethylcellulose solution at the concentration of 2 mg/mL. When a homogenous suspension was not obtained in this condition, the test compound was dissolved in ethanol at the concentration of 100 mg/mL of its active form and then 2 mg/mL suspension was obtained by adding this solution to 49 times volumes of 0.5% sodium carboxymethylcellulose solution. Apart of this suspension was diluted with 0.5% sodium carboxymethylcellulose solution and then 0.6 and 0.2 mg/mL suspensions were prepared. After the body weights of rats were measured, the test suspension was orally administered at the dose of 5 mL/kg (1, 3 and 10 mg/kg). For control, just only 0.5% sodium carboxymethylcellulose solution was orally administered at the dose of 5 mL/kg. Immediately after this oral administration, 500 g/L sucrose solution was orally administered at the dose of 5 mL/kg (2.5 g/kg). The oral administration was performed with gastric tube for rat and 2.5 mL syringe. The head count in one group was 3. Collection of urine was performed in metabolic cage after the sucrose administration was finished. The sampling time for collection of urine was 24 hours after the sucrose administration. After collection of urine was finished, the urine volume was recorded and the urinary glucose concentration was measured. The glucose concentration was measured with a kit for laboratory test: Glucose B-Test WAKO (Wako Pure Chemical Industries, Ltd.). The amount of urinary glucose excretion in 24 hours per 200 g of body weight was calculated from urine volume, urinary glucose concentration and body weight.

SD rat = assay: Acute toxicity test; format: in vivo; conditions: oral 1000 mg/kg; male SD rat, 5 animals in each group; observation for 24 hours
Protocol: A 100 mg/mL suspension was prepared by adding 0.5% sodium carboxymethylcellulose solution to a test compound. Five week old male SD rat (CLEA JAPAN, INC., 124-128 g, 5 animals in each group) were used as test animals after fasted overnight. The above-mentioned suspension was orally administered at the dose 10 mL/kg (1000 mg/kg) to the test animals, and observation was performed for 24 hours.

Compound | IC50 (human SGLT2) | Amount of urinary glucose excretion (SD rats; oral dose 1 mg/kg) | Amount of urinary glucose excretion (SD rats; oral dose 3 mg/kg) | Amount of urinary glucose excretion (SD rats; oral dose 10 mg/kg) | Number of death (SD rat)
OCC=Cc1ccc(Cc2ccccc2OC2OC(CO)C(O)C(O)C2O)cc1 [Reference Example 49, (E)-2-[4-(3-Hydroxy-1-prop-1-en-1-yl)benzyl]phenyl β-D-glucopyranoside] | 120 nM | – | – | – | –
CC(=O)OCCc1ccc(Cc2ccccc2O[C@@H]2O[C@H](COC(C)=O)[C@@H](O)[C@H](O)[C@H]2O)cc1 [Example 40, 2-[4-(2-Acetoxyethyl)benzyl]phenyl 6-O-acetyl-β-D-glucopyranoside] | – | 0.0 mg/24 hours/200 g body weight | 4.1 mg/24 hours/200 g body weight | 55.9 mg/24 hours/200 g body weight | –
CCOC(=O)OC[C@H]1O[C@@H](Oc2cc(CO)ccc2Cc2ccc(CC)cc2)[C@H](O)[C@@H](O)[C@@H]1O [Example 1, 2-(4-Ethylbenzyl)-5-hydroxymethylphenyl 6-O-ethoxycarbonyl-β-D-glucopyranoside] | – | 7.0 mg/24 hours/200 g body weight | 82.1 mg/24 hours/200 g body weight | 195.8 mg/24 hours/200 g body weight | 0/5
